# Values of other authors as cited in US10894017B1 (XSPRAY PHARMA AB, priority 2019, dated 2021).
# Legend:
# [1] = within and between patients
# [2] = high permeability and low solubility
# [3] = clinical bio-equivalence studies
compound,measurement,setting,value
Cc1nc(Nc2ncc(C(=O)Nc3c(C)cccc3Cl)s2)cc(N2CCN(CCO)CC2)n1 [dasatinib],coefficient of variation of AUC,[1],up to 100%
same,coefficient of variation of Cmax,[1],up to 100%
Cc1nc(Nc2ncc(C(=O)Nc3c(C)cccc3Cl)s2)cc(N2CCN(CCO)CC2)n1 [Dasatinib monohydrate],BCS classification,[2],BCS II
Cc1nc(Nc2ncc(C(=O)Nc3c(C)cccc3Cl)s2)cc(N2CCN(CCO)CC2)n1 [anhydrate form N-6],AUC compared to Sprycel,[3],higher AUC
"CC(O)CO.Cc1nc(Nc2ncc(C(=O)Nc3c(C)cccc3Cl)s2)cc(N2CCN(CCO)CC2)n1 [1,2-propanediol solvate, dasatinib 1,2-propanediol solvate]",AUC compared to Sprycel,[3],higher AUC
